Results reported in US20160082130A1, “Dosage Forms and Methods for Diagnosing Sympathetic Nervous System Dysfunction” (priority 2014, published 2016).

Key:
[1] = tested on: patients with a diagnosis of GBS; test: apraclonidine 0.05% eye drop test in patients with Guillain-Barré syndrome (digital photographs, Image-J); assay type: in vivo, human
Source text: (§1) Patients with a diagnosis of GBS based on history and clinical exam were recruited for this study. Patients with diabetes were excluded from the study. Patients on medications or eye drops with either sympathetic or parasympathetic action were also excluded from the study. […] All patients had electrophysiological studies done in terms of nerve conduction studies at the time of their diagnosis. Patients on opioid therapy were not excluded. In total, five patients met the criteria for inclusion. Healthy control participants were recruited in outpatient clinics from partners and family members accompanying a person with an appointment. Participants with diabetes, ocular disease, previous ocular surgeries, and on sympathetic or parasympathetic medications or eye drops were also excluded from the study. Digital photographs of the subjects' eyes were obtained prior to the application of apraclonidine. A small pre-measured reference was used at the time of photography to help quantify measurements. Apraclonidine (0.05% drop) was added to the left eye and a follow up photograph was obtained some time (19-52 min) after the application of the drop. The digital photographs were analyzed with Image-J software (Schneider, C. A., et al., Nat. Methods 9:671-675, 2012) to determine pupillary diameter and palpebral fissure heights. Standard deviation of the measurements for error propagation was determined by repeated computer measurement of the pre-measured reference in a digital photograph. Palpebral fissure height was determined by measuring the vertical distance between the eyelids with the measurement going through the centre of each pupil. Pupillary diameter was determined with two measurements (horizontal and vertical) and an average denoted as OS or OD used for each pupil for further calculations. Pupillary response was quantified with the percentage ratio (D2−D1)/D1×100, where D1 and D2 represent the baseline anisocoria (D1=OS−OD) and the drug-induced anisocoria (D2=OS*−OD*) respectively.

healthy subjects = test: apraclonidine 0.05% eye drop test in healthy control subjects (digital photographs, Image-J); assay type: in vivo, human
Source text: as §1

## Nc1cc(Cl)c(NC2=NCCN2)c(Cl)c1 [apraclonidine, 2,6-dichloro-N-(4,5-dihydro-1H-imidazol-2-yl)benzene-1,4-diamine]
[1]; GBS patients with only ptosis, computer analysis of digital photographs
  amplification of palpebral fissure height difference after application: 1130% (±80%)
[1]; GBS patients with pupillary dysfunction, (D2-D1)/D1x100
  amplification of anisocoria after administration: 1124% (±324%)
[1]; five GBS patients, 0.05% drop to left eye, photograph 19-52 min after
  unmasking of bilateral ptosis: unmasked bilateral ptosis in all five GBS patients
[1]; five GBS patients, 0.05% drop to one eye
  unmasking of bilateral Horner's syndrome with dilation of miotic pupil: unmasked bilateral Horner's syndrome with dilation of miotic pupil in two of the five patients
[1]; photographic evidence from the subjects in this study
  unmasking of reverse ptosis of the lower eyelid: unmasks a reverse ptosis of the lower eyelid
Healthy subjects; healthy subjects, 0.05% drop to one eye
  effect on pupillary diameter: no significant effect
Healthy subjects; healthy subjects, analysis of digital photographs
  effect on the pupils: either no effect or caused paradoxical miosis of the pupil
Healthy subjects; normal individuals, 0.05% drop to one eye
  effect on palpebral fissure height: did not have any significant effect
